Reference: US7989463B2, “Biccyclic compounds as GATA modulators” (Dr. Reddy's Laboratories Limited, priority 2008, dated 2011)

How the values were obtained:
[1] = tested on: GATA1; experiment: GATA Assay: GATA Translucent Reporter Vector luciferase assay in transfected HepG2 cells; format: cell-based, Human; settings: luciferase normalized to total protein
Experimental: Human HepG2 (ATCC) cells were grown in Eagle's Minimum Essential Media (MEM) containing 10% heat inactivated Fetal Bovine Serum (FBS) (Invitrogen) and 5 mL Penicillin-Streptomycin (Invitrogen) in T75 flasks (Corning) in a 37° C./5% CO2 tissue culture incubator (Thermo Electron Corporation) prior to the study. 96-well plates (Corning) were seeded in MEM containing 10% FBS to yield ˜50% confluency. The following day, cells were transfected using FuGENE 6 transfection reagent (Roche) and […] GATA Translucent Reporter Vector (Panomics) according the manufacturer's (Roche) protocol and incubated for about 10-19 h. The next day, the cells were treated with equal volumes of vehicle, dimethyl sulfoxide (DMSO) (Hybri-Max Sterile Filtered Sigma Aldrich) or compounds of formula (I) (in DMSO) diluted in MEM containing 1% FBS. The treated cells were incubated about 8-19 h. The next day the treatment media was removed and the cells were lysed and assayed for luciferase activity using the luciferase assay system (Promega) and using the Envision plate reader (Perkin Elmer). The lysates were also used to measure total protein content with the MicroBCA protein assay kit (Pierce) using the Multiskan Ascent plate reader at 570 nm. Luciferase values were normalized to total protein and fold induction was calculated.
Compounds that show an increase of ≧40% in luciferase levels at ≦20 μm concentration were considered as GATA activators.

SMILES	GATA1 Activation (Fold Change Vs Control) ([1]; 5μ compound)	GATA1 Activation (Fold Change Vs Control) ([1]; 10μ compound)	melting point
O=C(O)C1(c2ccc(Nc3nc(Nc4cccc(F)c4)nc4c3CCC4)cc2)CCC1 [Example 12, 1-{4-[2-(3-fluoro-phenylamino)-6,7-dihydro-5H-cyclopentapyrimidin-4-ylamino]-phenyl}-cyclobutanecarboxylic acid]	3.22 Fold Change Vs Control	3.38 Fold Change Vs Control	
O=C(O)C1(c2ccc(Nc3nc(N4CCOCC4)nc4c3CCC4)cc2)CCC1 [Example 4, 1-[4-(2-morpholin-4-yl-6,7-dihydro-5H-cyclopentapyrimidin-4-ylamino)-phenyl]-cyclobutanecarboxylic acid]	2.45 Fold Change Vs Control	3.45 Fold Change Vs Control	279 to 281 °C
Cn1cc(-c2nc3c(c(Nc4ccc(C5(C(=O)O)CCC5)cc4)n2)CCC3)cn1 [Example 7, 1-{4-[2-(1-methyl-1H-pyrazol-4-yl)-6,7-dihydro-5H-cyclopentapyrimidin-4-ylamino]-phenyl}-cyclobutanecarboxylic acid]	1.79 Fold Change Vs Control	2.09 Fold Change Vs Control	
O=C(O)C1(c2ccc(Nc3nc(N4CCCC4)nc4c3CCC4)cc2)CCC1 [Example 6, 1-[4-(2-pyrrolidin-1-yl-6,7-dihydro-5H-cyclopentapyrimidin-4-ylamino)-phenyl]-cyclobutanecarboxylic acid]			245 to 247 °C
O=C(O)C1(c2ccc(Nc3nc(N4CCC(O)CC4)nc4c3CCC4)cc2)CCC1 [Example 5, 1-{4-[2-(4-hydroxy-piperidin-1-yl)-6,7-dihydro-5H-cyclopentapyrimidin-4-ylamino]-phenyl}-cyclobutanecarboxylic acid]			165 to 167 °C
CC(C)(C)Nc1nc(Nc2ccc(C3(C(=O)O)CCCC3)cc2)nc2c1CCC2 [Example 10, 1-[4-(4-tert-butylamino-6,7-dihydro-5H-cyclopentapyrimidin-2-ylamino)-phenyl]-cyclopentanecarboxylic acid]	2.07 Fold Change Vs Control	2.43 Fold Change Vs Control	
CC(=O)c1ccc(-c2nc3c(c(Nc4ccc(C5(C(=O)O)CCC5)cc4)n2)CCC3)cc1 [Example 9, 1-{4-[2-(4-acetyl-phenyl)-6,7-dihydro-5H-cyclopentapyrimidin-4-ylamino]-phenyl}-cyclobutanecarboxylic acid]	2.90 Fold Change Vs Control	3.50 Fold Change Vs Control	
O=C(O)C1(c2ccc(Nc3nc(NC4CCCC4)nc4c3CCC4)cc2)CCC1 [Example 13, 1-[4-(2-cyclopentylamino-6,7-dihydro-5H-cyclopentapyrimidin-4-ylamino)-phenyl]-cyclobutanecarboxylic acid]	1.94 Fold Change Vs Control	1.67 Fold Change Vs Control	
O=C(O)C1(c2ccc(Nc3nc(C4CCCC4)nc4c3CCC4)cc2)CCCC1 [Example 1, 1-[4-(2-cyclopentyl-6,7-dihydro-5H-cyclopentapyrimidin-4-ylamino)-phenyl]-cyclopentanecarboxylic acid]			321 to 325 °C
